# Assays:
# A549 = assay: Antiproliferative activity against human A549 cells incubated for 48 hrs by MTT assay; format: functional, cell-based; conditions: A549, 48 h
# NCI-H1975 = assay: Antiproliferative activity against human NCI-H1975 cells incubated for 48 hrs by MTT assay; format: functional, cell-based; conditions: NCI-H1975, 48 h
# P388 [1] = assay: Cytotoxicity against mouse P388 cells incubated for 48 hrs by MTT assay; format: functional, cell-based; conditions: P388, 48 h
# MDA-MB-231 [2] = assay: Antiproliferative activity against human MDA-MB-231 cells incubated for 24 hrs by MTT assay; format: functional, cell-based; conditions: MDA-MB-231, 24 h
# MCF7 [3] = assay: Antiproliferative activity against human MCF7 cells incubated for 24 hrs by MTT assay; format: functional, cell-based; conditions: MCF7, 24 h
# [4] = Cmax in Sprague-Dawley rat at 10 mg/kg, po measured after 0.25 to 72 hrs by LC/QTOF/MS method; format: ADME, organism-based; parameters: route oral, time upper 72 hrs, time lower 0.25 hrs, dose 10 mg/kg; conditions: in vivo
# [5] = Cmax in Sprague-Dawley rat at 10 mg/kg, iv measured after 0.08 to 72 hrs by LC/QTOF/MS method; format: ADME, organism-based; parameters: route intravenous, dose 10 mg/kg, time upper 72 hrs, time lower 0.08 hrs; conditions: in vivo
# MCF7 [6] = assay: Cytotoxicity against human MCF7 cells incubated for 48 hrs by sulforhodamine B staining based spectrophotometric assay; format: functional, cell-based; conditions: MCF7, 48 h
# UACC-62 = assay: Cytotoxicity against human UACC-62 cells incubated for 48 hrs by sulforhodamine B staining based spectrophotometric assay; format: functional, cell-based; conditions: UACC-62, 48 h
# CCRF S-180 = assay: Cytotoxicity against mouse CCRF S-180 cells incubated for 48 hrs by sulforhodamine B staining based ELISA; format: functional, cell-based; conditions: CCRF S-180, 48 h
# LNCaP = assay: Cytotoxicity against human LNCAP cells incubated for 48 hrs clonogenic survival assay; format: functional, cell-based; conditions: time 48 hrs, read-out: LD50 (the source's name)
# EL4 = assay: Cytotoxicity against mouse EL4 cells incubated for 48 hrs by sulforhodamine B staining based ELISA; format: functional, cell-based; conditions: EL4, 48 h
# MCF7 [7] = assay: Cytotoxicity against human MCF7 cells incubated for 48 hrs by sulforhodamine B staining based ELISA; format: functional, cell-based; conditions: MCF7, 48 h
# [8] = molecular target: Sarcoplasmic/endoplasmic reticulum calcium ATPase 1 (Oryctolagus cuniculus, UniProt P04191); assay: Inhibition of rabbit skeletal muscle SERCA1 assessed as reduction in calcium uptake preincubated for 10 mins followed by ATP addition and measured after 4 mins by scintillation liquid method
# [9] = Cytotoxicity against human TSU-Pr1 cells incubated for 2 hrs; format: functional, cell-based; conditions: TSU-Pr1, 2 h
# [10] = Inhibition of PAFR in New Zealand rabbit platelets assessed as reduction in PAF-induced platelet aggregation measured within 5 mins by aggregometry analysis; format: tissue-based; conditions: Oryctolagus cuniculus
# [11] = Antiproliferative activity against human OVCA429 cells incubated for 72 hrs by MTT assay; format: functional, cell-based; conditions: OVCA429, 72 h
# [12] = Inhibition of [3H]PAF-acether binding to PAFR in rabbit platelet plasma membranes incubated for 1 hr; format: cell membranes, Oryctolagus cuniculus, Cell membrane
# [13] = Suppression of ZEB1 protein level in human T-24 cells incubated for 24 hrs by Western blot analysis; format: functional, cell-based; conditions: T-24, 24 h
# Bel-7402 = assay: Cytotoxicity against human Bel-7402 cells incubated for 24 hrs by MTS method; format: functional, cell-based; conditions: Bel-7402, 24 h
# HT-29 [14] = assay: Cytotoxicity against human HT-29 cells incubated for 24 hrs by MTS method; format: functional, cell-based; conditions: HT-29, 24 h
# [15] = Cytotoxicity against human MDA-Panc-28 cells incubated for 24 hrs by MTS method; format: functional, cell-based; conditions: MDA-Panc-28, 24 h
# HL-60 [16] = assay: Antiproliferative activity against human HL-60 cells incubated for 24 hrs by MTT assay; format: functional, cell-based; conditions: HL-60, 24 h
# A2058 = assay: Cytotoxicity against human A2058 cells incubated for 48 hrs by MTT assay; format: functional, cell-based; conditions: A2058, 48 h
# HT-29 [17] = assay: Cytotoxicity against human HT-29 cells incubated for 48 hrs by MTT assay; format: functional, cell-based; conditions: HT-29, 48 h
# MDA-MB-231 [18] = assay: Cytotoxicity against human MDA-MB-231 cells incubated for 48 hrs by MTT assay; format: functional, cell-based; conditions: MDA-MB-231, 48 h
# HCT-116 = assay: Cytotoxicity against human HCT-116 cells; format: functional, cell-based
# HL-60 [19] = assay: Antiproliferative activity against human HL-60 cells; format: functional, cell-based
# MCF7 [20] = assay: Antiproliferative activity against human MCF7 cells incubated for 48 hrs by SRB assay; format: functional, cell-based; conditions: MCF7, 48 h
# P388 [21] = assay: Antiproliferative activity against mouse P388 cells; format: functional, cell-based
# CCRF-CEM = assay: Cytotoxicity against human CEM cells incubated for 72 hrs by MTT assay; format: functional, cell-based
# HL-60 [22] = assay: Cytotoxicity against human HL-60 cells incubated for 72 hrs by MTT assay; format: functional, cell-based; conditions: HL-60, 72 h
# Jurkat = assay: Cytotoxicity against human Jurkat cells incubated for 72 hrs by MTT assay; format: functional, cell-based
# Sequence of Sarcoplasmic/endoplasmic reticulum calcium ATPase 1 (P04191 whole entry): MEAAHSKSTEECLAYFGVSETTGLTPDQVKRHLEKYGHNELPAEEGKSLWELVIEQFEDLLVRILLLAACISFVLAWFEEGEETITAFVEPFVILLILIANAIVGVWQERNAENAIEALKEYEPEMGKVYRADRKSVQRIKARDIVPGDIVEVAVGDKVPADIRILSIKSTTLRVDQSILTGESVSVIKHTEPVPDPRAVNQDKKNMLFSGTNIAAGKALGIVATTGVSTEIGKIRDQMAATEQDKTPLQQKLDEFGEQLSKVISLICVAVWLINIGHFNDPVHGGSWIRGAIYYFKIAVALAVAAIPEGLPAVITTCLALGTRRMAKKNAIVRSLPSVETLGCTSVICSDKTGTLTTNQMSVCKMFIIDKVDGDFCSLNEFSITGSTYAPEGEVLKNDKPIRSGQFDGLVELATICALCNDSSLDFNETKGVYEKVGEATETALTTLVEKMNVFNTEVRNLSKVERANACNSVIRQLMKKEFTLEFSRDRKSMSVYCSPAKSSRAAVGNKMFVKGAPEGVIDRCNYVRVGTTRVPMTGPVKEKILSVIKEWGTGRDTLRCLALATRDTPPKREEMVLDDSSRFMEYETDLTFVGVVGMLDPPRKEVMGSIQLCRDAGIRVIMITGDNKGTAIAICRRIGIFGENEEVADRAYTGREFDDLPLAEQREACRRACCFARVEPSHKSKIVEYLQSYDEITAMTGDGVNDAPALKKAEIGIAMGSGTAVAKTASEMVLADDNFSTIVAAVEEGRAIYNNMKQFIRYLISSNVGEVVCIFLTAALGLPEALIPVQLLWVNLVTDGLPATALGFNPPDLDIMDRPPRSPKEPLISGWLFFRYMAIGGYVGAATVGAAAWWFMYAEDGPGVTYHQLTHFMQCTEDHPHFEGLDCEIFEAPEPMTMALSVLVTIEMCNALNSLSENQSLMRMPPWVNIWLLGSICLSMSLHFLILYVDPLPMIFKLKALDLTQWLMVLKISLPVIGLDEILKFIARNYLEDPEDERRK
smiles,measurement,setting,value
CC(C)[C@H]1OC(=O)C=C2[C@@]13O[C@@H]3[C@H]1OC(=O)[C@@]3(C)[C@@H](O)CC[C@@]2(C)[C@@H]13,IC50,A549,5200 nM
same,IC50,NCI-H1975,3600 nM
same,IC50,P388 [1],720 nM
COC(=O)C[C@H]1[C@]2(C)C3=C(C)[C@H](c4ccoc4)C[C@H]3O[C@@H]2[C@@H]2OC(=O)[C@]3(C)C=CC(=O)[C@@]1(C)[C@@H]23 [NIMBOLIDE],IC50,MDA-MB-231 [2],6000 nM
same,IC50,MCF7 [3],4000 nM
same,Cmax,[4],15.3 ng/mL
same,Cmax,[5],5560 ng/mL
CC(=O)O[C@H]1C=C2C(=O)C3=C(C)C(=O)O[C@@H]3C[C@H]2[C@]2(C)CCCC(C)(C)[C@@H]12,IC50,MCF7 [6],130 nM
same,IC50,UACC-62,80 nM
C/C=C(/C)C(=O)O[C@H]1C(C)=C2[C@H]([C@@H]1OC(=O)CCCCCCC)[C@@](C)(OC(C)=O)C[C@H](OC(=O)CCC)[C@@]1(O)[C@H]2OC(=O)[C@@]1(C)O [THAPSIGARGIN],IC50,CCRF S-180,30 nM
same,CC50,LNCaP,10 nM
same,IC50,EL4,100 nM
same,IC50,MCF7 [7],2300 nM
same,IC50,[8],3.9 nM
same,IC50,[9],30 nM
C[C@@H]1C(=O)O[C@H]2[C@H](O)[C@@]34[C@H]5C[C@@H](C(C)(C)C)[C@]36[C@@H](OC(=O)[C@@H]6O)O[C@@]4(C(=O)O5)[C@@]12O [GINKOLIDE B],IC50,[10],130 nM
same,IC50,[11],> 50000 nM
same,IC50,[12],250 nM
same,IC50,[13],500 nM
CO[C@@]12OC(=O)C(CO)=C1[C@H]1O[C@]13CC[C@@H]1C(C)(C)CCC[C@@]1(C)[C@@H]3[C@H]2O,IC50,Bel-7402,> 50000 nM
same,IC50,HT-29 [14],> 50000 nM
same,IC50,[15],> 50000 nM
C=C1CC[C@@H]2[C@](C)(CO)[C@H](O)CC[C@@]2(C)[C@@H]1C/C=C1/C(=O)OC[C@H]1O [ANDROGRAPHOLIDE],IC50,HL-60 [16],2400 nM
same,IC50,A2058,26000 nM
same,IC50,HT-29 [17],> 30000 nM
same,IC50,MDA-MB-231 [18],> 30000 nM
same,IC50,HCT-116,> 40000 nM
same,IC50,HL-60 [19],7000 nM
same,IC50,MCF7 [20],15000 nM
same,IC50,P388 [21],2900 nM
CC(O)CC(=O)O[C@@]1(C)CO[C@@]2(C1)OC(=O)[C@H]([C@@H]1CC[C@]34C[C@]13C=C[C@@H]1[C@@]3(C)CC=C5C[C@@H](Cc6ccccc6)OC[C@]5(C)[C@@H]3C[C@@H](O)[C@]14C)[C@H]2O (stereo partly drawn),IC50,CCRF-CEM,3100 nM
same,IC50,HL-60 [22],5600 nM
same,IC50,Jurkat,1800 nM

# Source: ChEMBL document CHEMBL4706632, “Development of Potential Antitumor Agents from the Scaffolds of Plant-Derived Terpenoid Lactones” (J Med Chem, 2020)
